Entries after “also recorded” stand apart in the source; their conditions may differ. Where two headings read alike, the source gives them in different places.
Legend:
[1] = system: peripheral blood mononuclear cells (PBMC); assay: MTT cell viability assay, PBMC; type: cell-based; details: 24 h exposure
Experimental: (§1) A549 human lung carcinoma and HeLa human cervical carcinoma cell lines were cultured in Dulbecco’s Modified Eagle Medium (DMEM). MCF7 human breast cancer and leukemic (K562, HL-60, MT-2 and Jurkat) cells, and PBMC (Precision Bioservices, Frederic, MD, USA) were cultured in RPMI 1640. All media were purchased from FUJIFILM Wako (Osaka, Japan) and supplemented with 10% fetal bovine serum (FBS) (Sigma-Aldrich, St. Louis, MO, USA) and 89 μg/mL streptomycin (Meiji Seika Pharma, Tokyo, Japan) at 37 °C in a humid atmosphere and 5% CO2. In experiments, all cancer cell lines and PBMC were cultured in 24-well and 96-well plates (Iwaki brand Asahi Glass, Chiba, Japan) at 2 × 10^4 cells/mL and 1 × 10^6 cells/mL concentrations, respectively for 24 h.
(§2) The cells were exposed to various concentrations (1–100 μM) of the compounds for 24 h at 37 °C. The cells were then stained with MTT solution and incubated for additional 4 h. At the end of this period, supernatants were removed and 100 μL DMSO was added to each well to solubilize the formazan crystals. The absorbance of the solution was determined on the Infinitive M1000 (Tecan, Mannedorf, Switzerland) plate reader at a wavelength of 550 nm with background subtraction at 630 nm.

CML cell line K562 = assay: MTT cell viability assay, K562; type: cell-based, human; details: for IC50: read-out: IC50 Values, K562 Cell Line; for SI (selectivity index): ratio of the IC50 between PBMC and K562 cells
Experimental: A549 human lung carcinoma and HeLa human cervical carcinoma cell lines were cultured in Dulbecco’s Modified Eagle Medium (DMEM). […] In experiments, all cancer cell lines and PBMC were cultured in 24-well and 96-well plates (Iwaki brand Asahi Glass, Chiba, Japan) at 2 × 10^4 cells/mL and 1 × 10^6 cells/mL concentrations, respectively for 24 h.
as §2, with “The” for “The cells were exposed to various concentrations (1–100 μM) of the compounds for 24 h at 37 °C. The”

Jurkat = assay: MTT cell viability assay, Jurkat; type: cell-based; details: Homo sapiens, 24 h exposure
Experimental: as §1, §2

HL-60 = assay: MTT cell viability assay, HL-60; type: cell-based; details: Homo sapiens, 24 h exposure
Experimental: as §1, §2

[2] = system: ERK1/2 and phosphorylated ERK1/2 in K562 cells; assay: Immunoblot analysis of ERK signaling in K562; type: cell-based, human; details: K562, 10 μM, 6 h
Experimental: After 6 h of treatment at 37 °C, the cells were lysed in PBS-Laemmli sample buffer and then, immunoblot analysis was conducted using phospho-specific-p44/42 MAPK (Erk1/2) (Thr202/Tyr204) (D13.14.4E) XP Rabbit mAb (1:1000) (Cell Signaling Technology, Danvers, MA, USA) or anti-β-actin clone AC-15 (Sigma-Aldrich, St. Louis, MO, USA). For immunoreactivity detection, the chemiluminescence method was performed as previously described. The band intensity was measured using the ImageJ software (NIH, Bethesda, MD, USA).

ABL1 kinase = biological target: T1, ABL1 kinase (Homo sapiens, UniProt P00519); assay: ABL1 kinase inhibition (ADP-Glo Kinase Assay); type: biochemical; details: for IC50: ADP-Glo, 1 h incubation, room temperature
T1 construct: purchased Promega, Madison, WI, USA
T1 sequence (P00519 whole entry): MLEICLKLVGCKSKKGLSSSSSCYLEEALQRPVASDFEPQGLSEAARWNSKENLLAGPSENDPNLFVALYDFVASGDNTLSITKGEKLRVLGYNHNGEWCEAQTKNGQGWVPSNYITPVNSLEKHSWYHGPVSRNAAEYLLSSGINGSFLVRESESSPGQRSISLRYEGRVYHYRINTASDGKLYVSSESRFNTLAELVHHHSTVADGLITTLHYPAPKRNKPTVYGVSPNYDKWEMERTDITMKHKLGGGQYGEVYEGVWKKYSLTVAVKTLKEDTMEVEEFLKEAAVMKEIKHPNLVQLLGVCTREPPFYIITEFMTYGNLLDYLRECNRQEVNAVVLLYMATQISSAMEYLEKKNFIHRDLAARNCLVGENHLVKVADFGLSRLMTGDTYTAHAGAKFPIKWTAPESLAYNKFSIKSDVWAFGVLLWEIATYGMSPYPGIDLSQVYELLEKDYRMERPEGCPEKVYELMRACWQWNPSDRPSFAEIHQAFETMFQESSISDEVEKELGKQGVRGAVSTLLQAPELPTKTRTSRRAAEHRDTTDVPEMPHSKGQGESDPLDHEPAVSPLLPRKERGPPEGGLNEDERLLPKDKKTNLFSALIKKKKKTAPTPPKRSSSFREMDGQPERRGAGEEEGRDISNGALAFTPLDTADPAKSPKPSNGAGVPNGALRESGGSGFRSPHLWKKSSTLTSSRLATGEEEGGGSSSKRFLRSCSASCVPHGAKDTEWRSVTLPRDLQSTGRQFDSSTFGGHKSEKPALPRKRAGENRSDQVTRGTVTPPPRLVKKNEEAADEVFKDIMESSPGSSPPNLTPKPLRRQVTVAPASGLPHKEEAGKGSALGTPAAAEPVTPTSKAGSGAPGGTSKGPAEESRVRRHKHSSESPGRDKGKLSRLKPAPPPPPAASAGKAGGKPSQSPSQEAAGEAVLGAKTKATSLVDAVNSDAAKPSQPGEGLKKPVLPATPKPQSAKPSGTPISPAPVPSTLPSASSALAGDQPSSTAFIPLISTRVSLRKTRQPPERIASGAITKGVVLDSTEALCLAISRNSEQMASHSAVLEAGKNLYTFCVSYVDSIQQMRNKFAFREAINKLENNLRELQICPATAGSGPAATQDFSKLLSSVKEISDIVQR
Experimental: The ABL1 kinase profiling assay protocol was applied according to the manufacturer`s instructions (Promega, Madison, WI, USA) with the modification proposed in [36]. In this system, the ABL1 kinase and its substrate were diluted with 95 µL 2.5x Kinase Buffer and 15 µL of 100 µM ATP solutions, respectively. Then, the reaction of ABL1 kinase was performed using 2 µL of the compound solution at varying concentrations (0.1–30 µM), 4 µL of kinase working stock, and 4 µL of ATP/substrate working stock in the 384-well plate. After 1 h of incubation at room temperature, the activity of the ABL1 kinase was detected using the ADP-Glo Kinase Assay (Promega, Madison, WI, USA) and the inhibitory kinase activity of compounds in dose-response mode was measured by the Infinitive M1000 luminescence plate reader (Tecan, Groding, Austria).

[3] = system: HeLa human cervical carcinoma; assay: MTT cell viability assay, HeLa; type: cell-based; details: 24 h exposure
Experimental: as §1, §2

[4] = system: A549 human lung carcinoma; assay: MTT cell viability assay, A549; type: cell-based; details: for IC50: Homo sapiens, A549, MTT, 24 h exposure
Experimental: as §1, §2

K562 cells = assay: Cell death detection (Hoechst 33342/annexin V/ethidium homodimer III staining); type: cell-based, human; details: K562, IC50 concentration, 8 h
Experimental: The cells were then briefly washed twice with 1 × binding buffer. A staining solution containing 50 μL of 1 × binding buffer and 5 μL of FITC-Annexin V solution, 5 μL of ethidium homodimer III solution, or 5 μL of Hoechst 33342 solution was added, and incubated for 15 min at room temperature in the dark. Then, the cells were washed with 1 × binding buffer, and analyzed by the all-in-one fluorescence microscope Biorevo Fluorescence BZ-9000 (Keyence, Osaka, Japan). The number of healthy cells (Hoechst 33342), apoptotic cells (Annexin V), late apoptotic or necrotic cells (Annexin V and Ethidium homodimer III) and necrotic cells (Ethidium homodimer III) were counted as previously described.

MCF7 human breast cancer = assay: MTT cell viability assay, MCF7; type: cell-based; details: 24 h exposure
Experimental: as §1, §2

MT-2 = assay: MTT cell viability assay, MT-2; type: cell-based; details: Homo sapiens, MT2, 24 h exposure
Experimental: as §1, §2

[5] = Homo sapiens, K562, 24 h, MTT, 24 h exposure

Compound	IC50 ([1]; PBMC) [µM]	IC50 (CML cell line K562; [5]) [µM]	SI (selectivity index) (CML cell line K562)	further results
CC1(C)CC[C@]2(C(=O)OCc3ccc(C#N)cc3)CC[C@]3(C)C(=CC[C@@H]4[C@@]5(C)CC[C@H](O)[C@@](C)(C=O)[C@@H]5CC[C@]43C)[C@@H]2C1 [GP5, Gypsogenin 4-cyanobenzyl ester]	25.6 ± 2.18	3.19 ± 1.21	8.03	melting point: 175 to 177 °C; IC50 (Jurkat): 4.83 ± 0.35 µM; IC50 (HL-60): 4.36 ± 0.28 µM; ERK phosphorylation (phosphorylated ERK1/2) [2]: inhibitory effect of ERK phosphorylation; amount of ERK1/2 [2]: moderately decreased; IC50 (ABL1 kinase): 6.16 ± 0.63 µM; IC50 [3]: 5.66 ± 0.32 µM; IC50 [4]: 24.6 ± 1.94 µM; apoptotic effects on CML cell line (K562 cells): 9.5%; late apoptotic/necrotic effects (K562 cells): 5.1%; IC50 (MCF7 human breast cancer): 15.3 ± 2.11 µM; IC50 (MT-2): 7.26 ± 0.97 µM
CC1(C)CC[C@]2(C(=O)OCc3ccccc3)CC[C@]3(C)C(=CC[C@@H]4[C@@]5(C)CC[C@H](O)[C@@](C)(CO)[C@@H]5CC[C@]43C)[C@@H]2C1 [PT4, Hederagenin benzyl ester]	23.1 ± 3.11	6.48 ± 1.27	3.56	cytotoxicity on K562 relative to parent triterpene HE (CML cell line K562; fold vs HE): more than 15 times
C[C@H]1[C@H](C)CC[C@]2(C(=O)OCc3ccccc3)CC[C@]3(C)C(=CC[C@@H]4[C@@]5(C)CC[C@H](O)C(C)(C)[C@@H]5CC[C@]43C)[C@H]12 [PT6, Ursolic acid benzyl ester]	43.3 ± 1.93	21.8 ± 1.24	1.99	–
CC1(C)CC[C@]2(C(=O)OCc3cc(F)cc(F)c3)CC[C@]3(C)C(=CC[C@@H]4[C@@]5(C)CC[C@H](O)[C@@](C)(C=O)[C@@H]5CC[C@]43C)[C@@H]2C1 [GP4, Gypsogenin 3,5-difluorobenzyl ester]	28.3 ± 2.25	5.13 ± 1.38	5.51	melting point: 58 to 60 °C
C[C@H]1[C@H](C)CC[C@]2(C(=O)OCc3ccccc3)CC[C@]3(C)C(=CC[C@@H]4[C@@]5(C)C[C@@H](O)[C@H](O)[C@@](C)(CO)[C@@H]5CC[C@]43C)[C@H]12 [PT1, Asiatic acid benzyl ester]	15.5 ± 1.08	4.1 ± 0.85	3.79	–
CC1(C)CC[C@]2(C(=O)OCc3ccc(C(F)(F)F)cc3)CC[C@]3(C)C(=CC[C@@H]4[C@@]5(C)CC[C@H](O)[C@@](C)(C=O)[C@@H]5CC[C@]43C)[C@@H]2C1 [GP3, Gypsogenin 4-trifluoromethyl benzyl ester]	23.2 ± 3.08	4.58 ± 1.49	5.07	melting point: 175 to 177 °C
CC1(C)CC[C@]2(C(=O)O)CC[C@]3(C)C(=CC[C@@H]4[C@@]5(C)CC[C@H](O)[C@@](C)(CO)[C@@H]5CC[C@]43C)[C@@H]2C1 [HE, hederagenin, reference compound]	> 100	> 100	>1	–
C[C@H]1[C@H](C)CC[C@]2(C(=O)O)CC[C@]3(C)C(=CC[C@@H]4[C@@]5(C)CC[C@H](O)C(C)(C)[C@@H]5CC[C@]43C)[C@H]12 [UA, ursolic acid, reference compound]	> 100	16.5 ± 1.13	>6.06	–
CC1(C)CC[C@]2(C(=O)O)CC[C@]3(C)C(=CC[C@@H]4[C@@]5(C)CC[C@H](O)C(C)(C)[C@@H]5CC[C@]43C)[C@@H]2C1 [OA, oleanolic acid, reference compound]	> 100	~13	–	IC50 (CML cell line K562; MTT, 24 h exposure): 13.5 ± 2.55 µM
CC1(C)[C@@H](O)CC[C@]2(C)[C@H]3C(=O)C=C4[C@@H]5C[C@@](C)(C(=O)OCc6ccccc6)CC[C@]5(C)CC[C@@]4(C)[C@]3(C)CC[C@@H]12 [PT3, Glycyrrhetic acid benzyl ester]	> 100	–	>1.44	IC50 (CML cell line K562; Homo sapiens, K562, 24 h): 69.5 ± 8.43 µM
CC1(C)CC[C@]2(C(=O)OCc3ccccc3)CC[C@]3(C)C(=CC[C@@H]4[C@@]5(C)CC[C@H](O)C(C)(C)[C@@H]5CC[C@]43C)[C@@H]2C1 [PT5, Oleanolic acid benzyl ester]	50.2 ± 4.58	~5.5	9.19	IC50 (CML cell line K562; MTT, 24 h exposure): 5.46 ± 1.51 µM; IC50 (Jurkat): 13.8 ± 1.58 µM; IC50 (HL-60): 15.7 ± 1.36 µM; ERK phosphorylation (phosphorylated ERK1/2) [2]: inhibitory effect of ERK phosphorylation; amount of ERK1/2 [2]: moderately decreased; IC50 (ABL1 kinase): 1.44 ± 0.12 µM; ABL kinase IC50 potency relative to 1c (ABL1 kinase; fold vs 1c): six times stronger; also recorded: about sixfold; IC50 [3]: 67 ± 4.19 µM; activity against A549 cell line at 100 µM ([4]; 100 µM): inactive; IC50 [4]: > 100 µM; apoptotic effects on CML cell line (K562 cells): 14%; late apoptotic/necrotic effects (K562 cells): 11%; IC50 (MCF7 human breast cancer): 53.9 ± 6.46 µM; IC50 (MT-2): 34.7 ± 3.85 µM
CC1(C)[C@@H](O)CC[C@]2(C)[C@H]3C(=O)C=C4[C@@H]5C[C@@](C)(C(=O)O)CC[C@]5(C)CC[C@@]4(C)[C@]3(C)CC[C@@H]12 [GA, glycyrrhetinic acid, reference compound]	> 100	41 ± 5.34	>2.43	–
COc1ccc(COC(=O)[C@]23CCC(C)(C)C[C@H]2C2=CC[C@@H]4[C@@]5(C)CC[C@H](O)[C@@](C)(C=O)[C@@H]5CC[C@@]4(C)[C@]2(C)CC3)cc1 [GP1, Gypsogenin 4-methoxybenzyl ester]	25.1 ± 2.92	5.53 ± 1.78	4.53	melting point: 78 to 80 °C
C[C@H]1[C@H](C)CC[C@]2(C(=O)O)CC[C@]3(C)C(=CC[C@@H]4[C@@]5(C)C[C@@H](O)[C@H](O)[C@@](C)(CO)[C@@H]5CC[C@]43C)[C@H]12 [AA, asiatic acid, reference compound]	> 100	29.3 ± 3.42	>3.41	–
C=C(C)[C@@H]1CC[C@]2(C(=O)O)CC[C@]3(C)[C@H](CC[C@@H]4[C@@]5(C)CC[C@H](O)C(C)(C)[C@@H]5CC[C@]43C)[C@@H]12 [BA, betulinic acid, reference compound]	> 100	52.3 ± 4.79	>1.91	–
C=C(C)[C@@H]1CC[C@]2(C(=O)OCc3ccccc3)CC[C@]3(C)[C@H](CC[C@@H]4[C@@]5(C)CC[C@H](O)C(C)(C)[C@@H]5CC[C@]43C)[C@@H]12 [PT2, Betulinic acid benzyl ester]	28 ± 2.74	8.49 ± 1.22	3.29	–
Cc1ccc(NC(=O)c2ccc(CN3CCN(C)CC3)cc2)cc1Nc1nccc(-c2cccnc2)n1 [Imatinib, reference compound]	–	–	–	apoptotic effects on CML cell line (K562 cells): 18%; late apoptotic/necrotic effects (K562 cells): 5.6%
gypsogenin [GP, reference compound]	–	–	–	IC50 [1]: > 100 µM; IC50 (CML cell line K562; MTT, 24 h exposure): 12.7 ± 2.15 µM

From paper PMC6804044, “Design, Synthesis and Biological Evaluation of Pentacyclic Triterpene Derivatives: Optimization of Anti-ABL Kinase Activity” (Molecules, 2019)
